Results: patent US6150385A, “1,3,4-thiadiazoles useful for the treatment of CMV infections” (Pharmacia & Upjohn Company, priority 1999, dated 2000)

Target: T1, HCMV polymerase (Human cytomegalovirus, UniProt P08546)
T1 construct: made in house; host or cells: SF-9 insect cells infected with recombinant baculovirus
Assay: HCMV polymerase assay (scintillation proximity assay)
Assay type: biochemical
Conditions: percentage of inhibition at 25 μM concentration in CMV polymerase assay
Method in brief: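 Baculovirus/SF-9-expressed HCMV polymerase in 5.4 mM HEPES pH 7.5, 11.7 mM KCl, 4.5 mM MgCl2, 0.36 mg/ml BSA, 90 nM 3H-dTTP, with or without 2 mM CHAPS. Started with 6 nM biotinylated poly(dA)-oligo(dT), 30 min at 25 or 37 °C, EDTA-stopped, read by streptavidin-SPA counting; % inhibition at 25 μM.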

T1 sequence (P08546 whole entry): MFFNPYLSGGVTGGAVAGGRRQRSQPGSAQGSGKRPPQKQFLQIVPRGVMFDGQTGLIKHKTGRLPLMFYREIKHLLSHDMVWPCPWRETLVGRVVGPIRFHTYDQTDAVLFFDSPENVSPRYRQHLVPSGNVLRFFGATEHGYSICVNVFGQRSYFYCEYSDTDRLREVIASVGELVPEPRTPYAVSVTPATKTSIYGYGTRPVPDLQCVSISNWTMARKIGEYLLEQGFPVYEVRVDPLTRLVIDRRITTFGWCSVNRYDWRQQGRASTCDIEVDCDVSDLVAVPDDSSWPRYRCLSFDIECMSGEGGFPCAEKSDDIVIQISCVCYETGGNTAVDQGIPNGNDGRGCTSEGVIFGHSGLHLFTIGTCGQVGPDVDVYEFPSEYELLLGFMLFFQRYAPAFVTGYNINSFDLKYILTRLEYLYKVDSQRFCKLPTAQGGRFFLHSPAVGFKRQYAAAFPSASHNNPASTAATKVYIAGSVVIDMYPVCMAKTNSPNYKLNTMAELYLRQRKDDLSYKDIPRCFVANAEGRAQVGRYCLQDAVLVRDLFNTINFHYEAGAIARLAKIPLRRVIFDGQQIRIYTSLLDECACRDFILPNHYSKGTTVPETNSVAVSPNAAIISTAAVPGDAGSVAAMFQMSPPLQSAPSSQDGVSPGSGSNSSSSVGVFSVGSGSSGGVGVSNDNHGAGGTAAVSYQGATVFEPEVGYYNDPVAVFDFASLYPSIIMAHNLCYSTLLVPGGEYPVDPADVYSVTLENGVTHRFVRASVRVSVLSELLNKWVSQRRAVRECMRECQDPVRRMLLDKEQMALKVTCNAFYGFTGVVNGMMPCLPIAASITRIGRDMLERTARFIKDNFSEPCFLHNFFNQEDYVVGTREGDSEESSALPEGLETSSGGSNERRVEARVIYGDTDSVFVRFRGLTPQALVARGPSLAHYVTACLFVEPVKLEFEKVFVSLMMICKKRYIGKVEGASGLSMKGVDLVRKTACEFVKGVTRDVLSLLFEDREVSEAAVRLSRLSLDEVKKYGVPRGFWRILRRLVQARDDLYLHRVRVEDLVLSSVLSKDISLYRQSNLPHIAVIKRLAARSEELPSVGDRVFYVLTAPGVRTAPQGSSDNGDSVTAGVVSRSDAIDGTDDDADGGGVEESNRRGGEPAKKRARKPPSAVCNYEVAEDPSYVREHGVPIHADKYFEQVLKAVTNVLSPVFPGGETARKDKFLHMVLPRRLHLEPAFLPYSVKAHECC

Row | inhibition at 25 µM | SMILES | % Inhib
1 | 65% | O=C(Nc1nnc(NCc2cccc3ccccc23)s1)c1c(Cl)cccc1Cl [compound 101, 2,6-dichloro-N-{5-[(1-naphthylmethyl)amino]-1,3,4-thiadiazol-2-yl}benzamide] | –
2 | 25.5% | CC(C)c1cc(C(C)C)c(C(=O)Nc2nnc(NCc3ccc(F)cc3)s2)c(C(C)C)c1 [compound 401, N-{5-[(4-fluorobenzyl)amino]-1,3,4-thiadiazol-2-yl}-2,4,6-triisopropylbenzamide] | –
3 | – | O=C(Nc1nnc(NCCNc2ccccc2)s1)c1ccc(S(=O)(=O)F)cc1 [compound 204, 4-[({5-[(2-anilinoethyl)amino]-1,3,4-thiadiazol-2-yl}amino)carbonyl]benzenesulfonyl fluoride] | 45.0%
4 | 29.9% | O=C(CCCCCl)Nc1nnc(NCCc2ccccc2)s1 [compound 354, 5-chloro-N-[5-(phenethylamino)-1,3,4-thiadiazol-2-yl]pentanamide] | –
5 | 48.3% | Cc1ccc(C(=O)Nc2nnc(NCc3ccc4c(c3)OCO4)s2)cc1 [compound 181, N-{5-[(1,3-benzodioxol-5-ylmethyl)amino]1,3,4-thiadiazol-2-yl}-4-methylbenzamide] | –
6 | 33.5% | CC(C)(C)CNc1nnc(NC(=O)/C=C/c2ccccc2Cl)s1 [compound 319, (E)-3-(2-chlorophenyl)-N-[5-(neopentylamino)-1,3,4-thiadiazol-2-yl]-2-propenamide] | –
7 | 22.3% | CC(C)c1cc(C(C)C)c(C(=O)Nc2nnc(NCc3ccco3)s2)c(C(C)C)c1 [compound 442, N-{5-[(2-furylmethyl)amino]-1,3,4-thiadiazol-2-yl}-2,4,6-triisopropylbenzamide] | –
